Source: ChEMBL document CHEMBL3580639, “Bioactive Limonoid Constituents of Munronia henryi” (J Nat Prod, 2015)
≈ marks a conversion by molar mass, not a printed value.

Experiments:
Tobacco mosaic virus [1] = experiment: (§1) Antiviral activity against 30 mins compound pre-treated TMV U1 infected on Nicotiana glutinosa leaves assessed as virus inactivation effect by measuring local lesion numbers after 3 to 4 days post virus inoculation at 5 ug/ml by half-leaf method relative to untreated control; type: functional; details: U1, in Nicotiana glutinosa
A549 = experiment: Cytotoxicity against human A549 cells incubated for 48 hrs by MTT assay; type: functional, cell-based; details: A549, 48 h
Tobacco mosaic virus [2] = experiment: Antiviral activity against TMV U1 infected on compound smeared Nicotiana glutinosa leaves assessed as virus infection protective effect by measuring local lesion numbers after 3 to 4 days post virus inoculation at 200 ug/ml by half-leaf method; type: functional; details: U1, in Nicotiana glutinosa
Tobacco mosaic virus [3] = experiment: Antiviral activity against TMV U1 infected on 20 mins compound treated fresh leaves from 5 to 6 growth stage Nicotiana glutinosa assessed as inhibition of virus growth at 50 ug/ml cultured at 25 degC for 72 hrs by half-leaf method; type: functional; details: U1, in Nicotiana glutinosa
Tobacco mosaic virus [4] = experiment: as §1, with “Potency index, ratio of IC50 for ningnanmycin to IC50 for test compound” for “Antiviral activity”, “inoculation” for “inoculation at 5 ug/ml”; type: functional
Tobacco mosaic virus [5] = experiment: Antiviral activity against 30 mins compound pre-treated TMV U1 infected on Nicotiana glutinosa leaves assessed as virus inactivation effect by measuring local lesion numbers after 3 to 4 days post virus inoculation at 50 ug/ml by half-leaf method relative to untreated control; type: functional; details: U1, in Nicotiana glutinosa
MCF7 = experiment: Cytotoxicity against human MCF7 cells incubated for 48 hrs by MTT assay; type: functional, cell-based; details: MCF7, 48 h
Tobacco mosaic virus [6] = experiment: Antiviral activity against TMV U1 infected on Nicotiana glutinosa leaves smeared with virus before compound treatment assessed as virus infection curative effect by measuring local lesion numbers after 3 to 4 days post virus inoculation at 200 ug/ml by half-leaf method; type: functional; details: U1, in Nicotiana glutinosa
Tobacco mosaic virus [7] = experiment: Antiviral activity against 30 mins compound pre-treated TMV U1 infected on Nicotiana glutinosa leaves assessed as virus inactivation effect by measuring local lesion numbers after 3 to 4 days post virus inoculation by half-leaf method relative to untreated control; type: functional, organism-based
SW480 = experiment: Cytotoxicity against human SW480 cells incubated for 48 hrs by MTT assay; type: functional, cell-based; details: SW480, 48 h
Tobacco mosaic virus [8] = experiment: Antiviral activity against 30 mins compound pre-treated TMV U1 infected on Nicotiana glutinosa leaves assessed as virus inactivation effect by measuring local lesion numbers after 3 to 4 days post virus inoculation at 20 ug/ml by half-leaf method relative to untreated control; type: functional; details: U1, in Nicotiana glutinosa
Tobacco mosaic virus [9] = experiment: Antiviral activity against 30 mins compound pre-treated TMV U1 infected on Nicotiana glutinosa leaves assessed as virus inactivation effect by measuring local lesion numbers after 3 to 4 days post virus inoculation at 30 ug/ml by half-leaf method relative to untreated control; type: functional; details: U1, in Nicotiana glutinosa
Tobacco mosaic virus [10] = experiment: Antiviral activity against 30 mins compound pre-treated TMV U1 infected on Nicotiana glutinosa leaves assessed as virus inactivation effect by measuring local lesion numbers after 3 to 4 days post virus inoculation at 40 ug/ml by half-leaf method relative to untreated control; type: functional; details: U1, in Nicotiana glutinosa
SMMC-7721 = experiment: Cytotoxicity against human SMMC7721 cells incubated for 48 hrs by MTT assay; type: functional, cell-based; details: SMMC-7721, 48 h
Tobacco mosaic virus [11] = experiment: Antiviral activity against 30 mins compound pre-treated TMV U1 infected on Nicotiana glutinosa leaves assessed as virus inactivation effect by measuring local lesion numbers after 3 to 4 days post virus inoculation at 50 ug/ml by half-leaf method; type: functional; details: U1, in Nicotiana glutinosa
Tobacco mosaic virus [12] = experiment: Antiviral activity against 30 mins compound pre-treated TMV U1 infected on Nicotiana glutinosa leaves assessed as virus inactivation effect by measuring local lesion numbers after 3 to 4 days post virus inoculation at 10 ug/ml by half-leaf method relative to untreated control; type: functional; details: U1, in Nicotiana glutinosa
HL-60 = experiment: Cytotoxicity against human HL60 cells incubated for 48 hrs by MTT assay; type: functional, cell-based; details: HL-60, 48 h

CC(=O)O[C@@H]1[C@@H]2[C@@]3(C)C=CC(=O)OC(C)(C)[C@@H]3CC(=O)[C@@]2(C)[C@@]23O[C@@H]2C[C@@H](c2ccoc2)[C@]3(C)[C@H]1OC(C)=O
inhibition at 5 µg/mL (Tobacco mosaic virus [1]): 11.8%
IC50 (A549): > 10 µM
inhibition at 200 µg/mL (Tobacco mosaic virus [2]): 56.7%
inhibition at 50 µg/mL (Tobacco mosaic virus [3]): 98.9%
Ratio IC50 (Tobacco mosaic virus [4]): 2
inhibition at 50 µg/mL (Tobacco mosaic virus [5]): 95.6%
IC50 (MCF7): > 10 µM
inhibition at 200 µg/mL (Tobacco mosaic virus [6]): 52.8%
IC50 (Tobacco mosaic virus [7]): 19.6 µg/mL (≈ 36.3 µM)
IC50 (SW480): > 10 µM
inhibition at 20 µg/mL (Tobacco mosaic virus [8]): 62.3%
inhibition at 30 µg/mL (Tobacco mosaic virus [9]): 86.1%
inhibition at 40 µg/mL (Tobacco mosaic virus [10]): 92.3%
IC50 (SMMC-7721): > 10 µM
inhibition at 50 µg/mL (Tobacco mosaic virus [11]): 98.2%
inhibition at 10 µg/mL (Tobacco mosaic virus [12]): 30.9%
IC50 (HL-60): > 10 µM

CC(=O)O[C@H]1C[C@H]2[C@](C)(C3=CC[C@@H](c4ccoc4)[C@@]31C)[C@H](OC(C)=O)C[C@H]1C(C)(C)OC(=O)C[C@H](OC(C)=O)[C@@]12C [MUNRONOID L]
inhibition at 5 µg/mL (Tobacco mosaic virus [1]): 10.2%
IC50 (A549): > 10 µM
inhibition at 200 µg/mL (Tobacco mosaic virus [2]): 42.1%
inhibition at 50 µg/mL (Tobacco mosaic virus [3]): 80%
inhibition at 50 µg/mL (Tobacco mosaic virus [5]): 60.8%
IC50 (MCF7): > 10 µM
inhibition at 200 µg/mL (Tobacco mosaic virus [6]): 23.7%
IC50 (Tobacco mosaic virus [7]): 29 µg/mL (≈ 50.8 µM)
IC50 (SW480): > 10 µM
inhibition at 20 µg/mL (Tobacco mosaic virus [8]): 48%
inhibition at 30 µg/mL (Tobacco mosaic virus [9]): 51.4%
inhibition at 40 µg/mL (Tobacco mosaic virus [10]): 57.6%
IC50 (SMMC-7721): > 10 µM
inhibition at 50 µg/mL (Tobacco mosaic virus [11]): 61.4%
inhibition at 10 µg/mL (Tobacco mosaic virus [12]): 21.5%
IC50 (HL-60): > 10 µM
